Test results from paper PMC6661812, “Synthesis, biological activity and molecular docking of new tricyclic series as α-glucosidase inhibitors” (BMC Chemistry, 2019).

Experiments:
[1] = target: α-glucosidase enzyme type 1 from Baker’s yeast (Saccharomyces cerevisiae, UniProt P53341); assay: α-Glucosidase inhibitory assay (p-NPG substrate, absorbance at 405 nm); type: biochemical; conditions: for inhibition at 100 µg/mL: 100 µg/mL of each compound, test repeated three times, read-out: average percent inhibition of α-glucosidase; for IC50: mean of three experiments ± SEM, more than five concentrations
α-glucosidase enzyme type 1 from Baker’s yeast, sequence (P53341 whole entry): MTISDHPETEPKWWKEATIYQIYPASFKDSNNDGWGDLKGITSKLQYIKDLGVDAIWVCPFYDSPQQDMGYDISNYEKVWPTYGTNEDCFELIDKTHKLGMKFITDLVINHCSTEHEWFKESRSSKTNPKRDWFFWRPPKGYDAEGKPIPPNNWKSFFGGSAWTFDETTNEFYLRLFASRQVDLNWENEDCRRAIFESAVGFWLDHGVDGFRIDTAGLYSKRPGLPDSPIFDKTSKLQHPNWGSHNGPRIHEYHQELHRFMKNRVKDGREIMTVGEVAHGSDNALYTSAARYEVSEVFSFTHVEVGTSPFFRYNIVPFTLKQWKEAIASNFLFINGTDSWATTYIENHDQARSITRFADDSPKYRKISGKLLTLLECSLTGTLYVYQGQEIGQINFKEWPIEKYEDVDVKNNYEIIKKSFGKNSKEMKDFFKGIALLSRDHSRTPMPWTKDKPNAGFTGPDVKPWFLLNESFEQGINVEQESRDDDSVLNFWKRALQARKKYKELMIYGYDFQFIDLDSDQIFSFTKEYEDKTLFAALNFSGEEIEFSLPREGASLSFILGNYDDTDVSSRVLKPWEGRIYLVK
Procedure: Phosphate-buffered saline pH 6.5 was prepared at 20 °C by dissolving sodium phosphate monobasic (1.4 g), sodium chloride (8 g), potassium chloride (0.2 g) and potassium dihydrogen phosphate (0.2 g) in deionized water (1 L). The solution was adjusted to pH 6.5 at 20 °C with 1 M sodium hydroxide (NaOH) or hydrochloric acid (HCl). A 20-mM solution of para-nitrophenyl-α-D-glucopyranoside (p-NPG substrate) was prepared by dissolving […] of p-NPG in 10 mL of buffer solution. The α-glucosidase enzyme solution was prepared by dissolving α-glucosidase enzyme type 1 from Baker’s yeast (1 mg) in cold phosphate-buffered saline (1000 µL), pH 6.5; 50 µL of this solution was mixed into 12 mL of cold phosphate-buffered saline to give a concentration of 0.125 unit/mL. For the screening of samples, 200 µg/mL concentration was prepared in 100% dimethyl sulfoxide (DMSO). Then, two-fold serial dilutions with 5% DMSO were prepared in a 96-well microplate to give final concentrations of 100, 50, 25, 12.5, 6.25, 3.13 and 1.56 µg/mL. […]
A volume of 10 µL of 5% DMSO was added to the 96 wells of the microplate. Then, 10 µL of the stock sample was added to the first well and mixed. Subsequently, 10 µL of the sample from the first well was taken and added to the second well and this procedure was repeated for the two-fold serial dilutions. Next, 20 µL of the α-glucosidase enzyme, 40 µL of phosphate buffered saline at pH 6.5 and 20 µL of deionized water were added to each well in the 96-well microtiter plate and mixed. The mixture was pre-incubated at 37 °C for 10 min. Then, 10 µL of 20 mM p-NPG solution was added to the mixture and the absorbance at 0 min. was measured at 405 nm. The reaction was incubated for 30 min. at 37 °C and the absorbance was then measured. […] Experiments were performed in triplicate. The inhibition activity of α-glucosidase was determined based on the described method by Ahmad et al.. The percent inhibition (%) of α-glucosidase inhibitory activity was calculated using the equation: %inhibition=A30min-A0mincontrol-A30min-A0minexp/A30min-A0mincontrol×100\%
IC50 values are the mean values of three experiments represented as SEM (n = 3). […] Statistical analysis using one-way ANOVA was applied to the results. Nonlinear regression analysis using a four-parameter logistic curve was performed to calculate the IC50 values. The statistical software used were Microsoft Excel 2010 and Sigma Plot (version 14.0 Notebook, Systat Software Inc.).

| SMILES | melting point [°C] | inhibition at 100 µg/mL [1] [%] | IC50 [1] [µM] |
| --- | --- | --- | --- |
| Clc1nc2nc(Oc3ccccc3)nn2c2ncccc12 [Compound 5, 5-chloro-2-phenoxypyrido[3,2-e][1,2,4]triazolo[1,5-a]pyrimidine] | 190 to 192 |  |  |
| Cc1ccccc1Cn1c(=O)c2cccnc2n2nc(Oc3ccccc3)nc12 [Compound 2d, 4-(2-Methylbenzyl)-2-phenoxypyrido[3,2-e][1,2,4]triazolo[1,5-a]pyrimidin-5(4H)-one] | 160 to 162 | > 50 | 174 |
| O=c1[nH]c2nc(Oc3ccccc3)nn2c2ncccc12 [Compound 1, 2-phenoxypyrido[3,2-e][1,2,4]triazolo[1,5-a]pyrimidin-5(4H)-one] | 252 to 254 |  |  |
| O=c1c2cccnc2n2nc(Oc3ccccc3)nc2n1CCN1CCCCC1 [Compound 2k, 2-Phenoxy-4-(2-(piperidin-1-yl)ethyl)pyrido[3,2-e][1,2,4]triazolo[1,5-a]pyrimidin-5(4H)-one] | 200 to 202 |  |  |
| Cc1cccc(Cn2c(=O)c3cccnc3n3nc(Oc4ccccc4)nc23)c1 [Compound 2e, 4-(3-Methylbenzyl)-2-phenoxypyrido[3,2-e][1,2,4]triazolo[1,5-a]pyrimidin-5(4H)-one] | 181 to 183 |  |  |
| O=c1c2cccnc2n2nc(Oc3ccccc3)nc2n1Cc1ccccc1 [Compound 2c, 4-Benzyl-2-phenoxypyrido[3,2-e][1,2,4]triazolo[1,5-a]pyrimidin-5(4H)-one] | 195 to 197 |  |  |
| O=c1c2cccnc2n2nc(Oc3ccccc3)nc2n1Cc1ccc(Cl)cc1 [Compound 2i, 4-(4-Chlorobenzyl)-2-phenoxypyrido[3,2-e][1,2,4]triazolo[1,5-a]pyrimidin-5(4H)-one] | 144 to 146 |  |  |
| COc1ccc(O)c(/C=N/Nc2nc3nc(Oc4ccccc4)nn3c3ncccc23)c1 [Compound 6g, (E)-4-Methoxy-2-((2-(2-phenoxypyrido[3,2-e][1,2,4]triazolo[1,5-a]pyrimidin-5-yl)hydrazono)methyl)phenol] | 220 to 222 |  |  |
| COc1cccc(CSc2nc3nc(Oc4ccccc4)nn3c3ncccc23)c1 [Compound 4, 5-((3-methoxybenzyl)thio)-2-phenoxypyrido[3,2-e][1,2,4]triazolo[1,5-a]pyrimidine] | 149 to 151 |  |  |
| ONc1nc2nc(Oc3ccccc3)nn2c2ncccc12 [Compound 6e, N-(2-phenoxypyrido[3,2-e][1,2,4]triazolo[1,5-a]pyrimidin-5-yl)hydroxylamine] | 249 to 251 |  |  |
| Cc1ccc(Nc2nc3nc(Oc4ccccc4)nn3c3ncccc23)cc1 [Compound 6b, 2-Phenoxy-N-(p-tolyl)pyrido[3,2-e][1,2,4]triazolo[1,5-a]pyrimidin-5-amine] | 162 to 164 | > 50 | 207 |
| COc1cccc(Cn2c(=O)c3cccnc3n3nc(Oc4ccccc4)nc23)c1 [Compound 2f, 4-(3-Methoxybenzyl)-2-phenoxypyrido[3,2-e][1,2,4]triazolo[1,5-a]pyrimidin-5(4H)-one] | 189 to 191 |  |  |
| COc1ccccc1/C=N/Nc1nc2nc(Oc3ccccc3)nn2c2ncccc12 [Compound 6h, (E)-5-(2-(2-Methoxybenzylidene)hydrazinyl)-2-phenoxypyrido[3,2-e][1,2,4]triazolo[1,5-a]pyrimidine] | 111 to 113 | > 50 | 104 |
| NNc1nc2nc(Oc3ccccc3)nn2c2ncccc12 [Compound 6f, 5-hydrazinyl-2-phenoxypyrido[3,2-e][1,2,4]triazolo[1,5-a]pyrimidine] | 241 to 243 |  |  |
| O=c1c2cccnc2n2nc(Oc3ccccc3)nc2n1Cc1ccc([N+](=O)[O-])cc1 [Compound 2h, 4-(4-Nitrobenzyl)-2-phenoxypyrido[3,2-e][1,2,4]triazolo[1,5-a]pyrimidin-5(4H)-one] | 150 to 152 |  |  |
| C=CCn1c(=O)c2cccnc2n2nc(Oc3ccccc3)nc12 [Compound 2b, 4-Allyl-2-phenoxypyrido[3,2-e][1,2,4]triazolo[1,5-a]pyrimidin-5(4H)-one] | 170 to 172 |  |  |
| COc1ccc(Nc2nc3nc(Oc4ccccc4)nn3c3ncccc23)cc1 [Compound 6c, N-(4-Methoxyphenyl)-2-phenoxypyrido[3,2-e][1,2,4]triazolo[1,5-a]pyrimidin-5-amine] | 174 to 176 | > 60 | 177 |
| S=c1[nH]c2nc(Oc3ccccc3)nn2c2ncccc12 [Compound 3, 2-phenoxypyrido[3,2-e][1,2,4]triazolo[1,5-a]pyrimidine-5(4H)-thione] | 270 to 272 | > 60 | 168 |
| O=c1c2cccnc2n2nc(Oc3ccccc3)nc2n1CCN1CCOCC1 [Compound 2j, 4-(2-Morpholinoethyl)-2-phenoxypyrido[3,2-e][1,2,4]triazolo[1,5-a]pyrimidin-5(4H)-one] | 169 to 171 |  |  |
| c1ccc(Nc2nc3nc(Oc4ccccc4)nn3c3ncccc23)cc1 [Compound 6a, 2-Phenoxy-N-phenylpyrido[3,2-e][1,2,4]triazolo[1,5-a]pyrimidin-5-amine] | 251 to 253 | > 50 | 154 |
| CCOc1ccc(Nc2nc3nc(Oc4ccccc4)nn3c3ncccc23)cc1 [Compound 6d, N-(4-Ethoxyphenyl)-2-phenoxypyrido[3,2-e][1,2,4]triazolo[1,5-a]pyrimidin-5-amine] | 154 to 156 | > 60 | 139 |
| CCn1c(=O)c2cccnc2n2nc(Oc3ccccc3)nc12 [Compound 2a, 4-Ethyl-2-phenoxypyrido[3,2-e][1,2,4]triazolo[1,5-a]pyrimidin-5(4H)-one] | 173 to 175 | > 50 | 304 |
| O=C(NNc1nc2nc(Oc3ccccc3)nn2c2ncccc12)c1ccncc1 [Compound 6i, N’-(2-phenoxypyrido[3,2-e][1,2,4]triazolo[1,5-a]pyrimidin-5-yl)isonicotinohydrazide] | 163 to 165 |  |  |
